Test results published in PMC12881674, “Activation of TRPV3 channels in bladder cancer cells stimulates ATP release” (Molecular Pharmacology, 2025).

What was measured:
HEK293 cells = tested on: HEK293 cells; set-up: method as in PMID 35916168; settings: >10 μM; cited from earlier work
KU-19-19 cells = test: ATPlite luminescence assay of extracellular ATP; assay type: cell-based, human; settings: pretreatment with 10 μM ruthenium red, 50 μM AV3-1
Experimental: KU-19-19 cells (1 × 10^5 per well) were plated in 24-well plates and cultured for 24 hours. Medium was removed, and wells were washed with PBS before adding 1 mL of drugs dissolved in PBS. After 30 minutes, 100 μL of the supernatant was transferred to a 96-well plate. ATP content was measured using the ATPlite luminescence ATP assay (Revvity, catalog number 6016943) following manufacturer’s instructions. Luminescence was recorded using a Polarstar Omega reader and normalized to control wells without addition of drugs.
Fig. 4 TRPV3 activation by AV3-1 was enhanced by cholesterol supplementation and causes ATP release in KU-19-19 bladder cancer cells. […] Current amplitudes were recorded using voltage ramps from −100 mV to +100 mV (500-millisecond duration) and expressed as current density (pA/pF) measured at +100 mV and −100 mV. (C) Quantification of current densities (pA/pF) at −100 mV (inward current) and +100 mV (outward current) at the time points (1, 2) as indicated in (A, B). […] Statistical significance was determined using Kruskal-Wallis ANOVA followed by Conover test; ∗P < .05. […] Inset: Box-and-whisker plots of AV3-1 potencies under control conditions (open box) and following cholesterol supplementation (gray box), derived from individual concentration-response fits and expressed as pEC50 (-log10(EC50 [M])). […]

Row | Compound | effects on HEK293 cells at higher concentrations (HEK293 cells) | effect on AV3-1-evoked ATP release (KU-19-19 cells)
1 | Cc1ccc(O)c(C2CCC(C(C)C)=C2Cl)c1 (centres unmarked) [KS0365] | nonspecific effects | –
2 | N.N.N.N.N.N.N.N.N.N.N.N.N.N.[Cl-].[Cl-].[Cl-].[Cl-].[Cl-].[Cl-].[O-2].[O-2].[Ru+3].[Ru+3].[Ru+4] [ruthenium red, reference compound] | – | reduced ATP levels
